What was measured:
[1] = target: T1, human TLR8 (Homo sapiens, UniProt Q9NR97); assay: TLR8 wild type NFκB-luc cellular reporter assay; format: cell-based; design: unit not given here; conditions: HEK293 NFκB-luc reporter, 6 hours incubation; for TLR8-wt (LEC): second part of table
T1 construct: expressed in transfected cells; host or cells: HEK293
T1 sequence (Q9NR97 27-1041): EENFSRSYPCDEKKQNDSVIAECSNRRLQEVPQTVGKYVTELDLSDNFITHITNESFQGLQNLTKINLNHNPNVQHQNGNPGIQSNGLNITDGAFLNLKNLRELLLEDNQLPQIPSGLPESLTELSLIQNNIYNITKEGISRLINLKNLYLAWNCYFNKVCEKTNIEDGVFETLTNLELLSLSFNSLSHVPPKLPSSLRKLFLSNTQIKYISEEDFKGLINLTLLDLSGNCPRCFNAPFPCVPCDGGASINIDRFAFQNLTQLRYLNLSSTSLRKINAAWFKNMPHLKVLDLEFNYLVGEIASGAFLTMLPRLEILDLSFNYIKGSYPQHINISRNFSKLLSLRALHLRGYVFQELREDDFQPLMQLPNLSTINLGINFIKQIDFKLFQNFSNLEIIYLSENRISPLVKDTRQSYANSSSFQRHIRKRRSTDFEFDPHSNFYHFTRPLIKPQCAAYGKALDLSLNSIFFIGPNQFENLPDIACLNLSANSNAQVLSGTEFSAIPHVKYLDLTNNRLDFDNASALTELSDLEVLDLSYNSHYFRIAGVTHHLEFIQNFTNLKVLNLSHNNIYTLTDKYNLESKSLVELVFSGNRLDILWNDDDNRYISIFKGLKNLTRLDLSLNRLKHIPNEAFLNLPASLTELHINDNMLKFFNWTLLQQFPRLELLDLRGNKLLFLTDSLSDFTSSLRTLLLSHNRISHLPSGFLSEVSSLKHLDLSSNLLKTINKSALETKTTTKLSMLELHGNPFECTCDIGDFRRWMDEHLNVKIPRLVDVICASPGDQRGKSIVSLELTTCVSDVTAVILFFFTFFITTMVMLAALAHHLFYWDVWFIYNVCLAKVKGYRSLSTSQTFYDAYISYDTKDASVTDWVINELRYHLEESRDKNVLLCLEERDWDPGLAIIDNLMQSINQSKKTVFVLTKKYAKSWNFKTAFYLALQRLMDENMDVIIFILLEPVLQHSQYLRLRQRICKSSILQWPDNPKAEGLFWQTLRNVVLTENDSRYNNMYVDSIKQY
Experimental: (§1) The ability of compounds to activate human TLR7 and/or TLR8 was assessed in a cellular reporter assay using HEK293 cells transiently transfected with a TLR7 or TLR8 expression vector and NFκB-luc reporter construct. In one instance the TLR expression construct expresses the respective wild type sequence or a mutant sequence comprising a deletion in the second leucine-rich repeat of the TLR.
(§2) Briefly, HEK293 cells were grown in culture medium (DMEM supplemented with 10% FCS and 2 mM Glutamine). For transfection of cells in 10 cm dishes, cells were detached with Trypsin-EDTA, transfected with a mix of CMV-TLR7 or TLR8 plasmid (750 ng), NFκB-luc plasmid (375 ng) and a transfection reagent and incubated 24 hours at 37° C. in a humidified 5% CO2 atmosphere. Transfected cells were then detached with Trypsin-EDTA, washed in PBS and resuspended in medium to a density of 1.67×10^5 cells/mL. Thirty microliters of cells were then dispensed into each well in 384-well plates, where 10 μL of compound in 4% DMSO was already present. Following 6 hours incubation at 37° C., 5% CO2, the luciferase activity was determined by adding 15 μl of Steady Lite Plus substrate (Perkin Elmer) to each well and readout performed on a ViewLux ultraHTS microplate imager (Perkin Elmer). Dose response curves were generated from measurements performed in quadruplicates. Lowest effective concentrations (LEC) values, defined as the concentration that induces an effect which is at least two fold above the standard deviation of the assay, were determined for each compound.

[2] = target: T2, human TLR7 (Homo sapiens, UniProt Q9NYK1); assay: TLR7 wild type NFκB-luc cellular reporter assay; format: cell-based; design: unit not given here; conditions: HEK293 NFκB-luc reporter, 6 hours incubation; for TLR7-wt (LEC): second part of table
T2 construct: expressed in transfected cells; host or cells: HEK293
T2 sequence (Q9NYK1 27-1049): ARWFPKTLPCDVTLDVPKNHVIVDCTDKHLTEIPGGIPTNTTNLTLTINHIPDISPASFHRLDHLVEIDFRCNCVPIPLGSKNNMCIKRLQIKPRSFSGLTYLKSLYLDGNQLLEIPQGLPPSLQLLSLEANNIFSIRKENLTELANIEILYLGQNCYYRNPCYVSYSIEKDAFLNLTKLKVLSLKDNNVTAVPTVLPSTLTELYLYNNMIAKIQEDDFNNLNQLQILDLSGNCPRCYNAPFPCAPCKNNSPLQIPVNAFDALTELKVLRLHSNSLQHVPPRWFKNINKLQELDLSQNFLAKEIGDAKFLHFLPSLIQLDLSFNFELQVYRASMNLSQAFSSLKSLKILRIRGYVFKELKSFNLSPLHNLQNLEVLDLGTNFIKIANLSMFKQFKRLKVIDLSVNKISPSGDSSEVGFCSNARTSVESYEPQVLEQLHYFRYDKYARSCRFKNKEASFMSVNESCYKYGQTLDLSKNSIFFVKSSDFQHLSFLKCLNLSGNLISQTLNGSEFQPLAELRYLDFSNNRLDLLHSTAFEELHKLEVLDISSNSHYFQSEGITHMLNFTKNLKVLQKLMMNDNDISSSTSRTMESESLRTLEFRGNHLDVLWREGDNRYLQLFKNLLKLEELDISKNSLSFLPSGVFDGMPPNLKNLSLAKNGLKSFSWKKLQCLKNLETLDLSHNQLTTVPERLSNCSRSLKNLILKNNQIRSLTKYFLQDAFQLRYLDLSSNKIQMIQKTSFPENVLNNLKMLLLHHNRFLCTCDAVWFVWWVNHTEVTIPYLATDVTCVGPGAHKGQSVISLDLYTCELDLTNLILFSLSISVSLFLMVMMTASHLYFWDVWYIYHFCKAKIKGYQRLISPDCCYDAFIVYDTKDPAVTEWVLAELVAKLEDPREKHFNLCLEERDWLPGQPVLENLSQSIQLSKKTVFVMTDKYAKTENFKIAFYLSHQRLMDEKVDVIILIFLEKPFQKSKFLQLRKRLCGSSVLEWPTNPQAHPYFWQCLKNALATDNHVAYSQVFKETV
Experimental: as §1
as §2, with “Following 6 hours incubation at 37° C., 5% CO2, the luciferase activity was determined by adding 15 μl of Steady Lite Plus substrate (Perkin Elmer) to each well and readout performed on a ViewLux ultraHTS microplate imager (Perkin Elmer).” left out

[3] = system: human TLR7 mutant (dIRR2); assay: TLR7 mutant (deletion in second leucine-rich repeat) NFκB-luc cellular reporter assay; format: cell-based; design: unit not given here; conditions: HEK293 NFκB-luc reporter, mutant TLR7, 6 hours incubation
Experimental: as §1, §2

[4] = system: HCV replicon (Huh-7 luc/neo cells); assay: Suppression of HCV replicon replication by conditioned media from PBMC; format: cell-based, HCV type 1b; conditions: Hepatitis C virus, compound concentration applied to PBMCs giving 50% reduction of replicon luciferase activity, read-out: PBMC-HUH7_EC50
Experimental: Activation of human TLR7 results in robust production of interferon by plasmacytoid dendritic cells present in human blood. The potential of compounds to induce interferon was evaluated by looking at the antiviral activity in the HCV replicon system upon incubation with conditioned media from peripheral blood mononuclear cells (PBMC). The HCV replicon assay is based on a bicistronic expression construct, as described by Lohmann et al. (Science (1999) 285: 110-113; Journal of Virology (2003) 77: 3007-15 3019) with modifications described by Krieger et al. (Journal of Virology (2001) 75: 4614-4624). The assay utilized the stably transfected cell line Huh-7 luc/neo harboring an RNA encoding a bicistronic expression construct comprising the wild type NS3-NS5B regions of HCV type 1b translated from an Internal Ribosome Entry Site (IRES) from encephalomyocarditis virus (EMCV), preceded by a reporter gene (Firefly-luciferase) and a selectable marker gene (neoR, neomycine phosphotransferase). The construct is flanked by 5′ and 3′ NTRs (non-translated regions) from HCV type 1b. Continued culture of the replicon cells in the presence of G418 (neoR) is dependent on the replication of the HCV RNA. The stably transfected replicon cells that replicate HCV RNA autonomously and to high levels, encoding inter alia luciferase, were used for profiling of the conditioned cell culture media.
Briefly, PBMCs were prepared from buffy coats of at least two donors using a standard Ficoll centrifugation protocol. Isolated PBMCs were resuspended in RPMI medium supplemented with 10% human AB serum and 2×10^5 cells/well were dispensed into 384-well plates containing compounds (70 μL total volume). After overnight incubation, 10 μL of supernatant was transferred to 384-well plates containing 2.2×10^3 replicon cells/well in 30 μL (plated the day before). Following 24 hours of incubation, replication was measured by assaying luciferase activity using 40 μL/well Steady Lite Plus substrate (Perkin Elmer) and measured with ViewLux ultraHTS microplate imager (Perkin Elmer). The inhibitory activity of each compound on the Huh7-luc/neo cells were reported as EC50 values, defined as the compound concentration applied to the PBMCs resulting in a 50% reduction of luciferase activity which in turn indicates the degree of replication of the replicon RNA on transfer of a defined amount of PBMC culture medium. Recombinant interferon α-2a (Roferon-A) was used as a standard control compound.

[5] = system: human TLR8 mutant (dIRR2); assay: TLR8 mutant (deletion in second leucine-rich repeat) NFκB-luc cellular reporter assay; format: cell-based; design: unit not given here; conditions: HEK293 NFκB-luc reporter, mutant TLR8, 6 hours incubation
Experimental: as §1, §2

Row | Structure (SMILES) | TLR8-wt (LEC) [1] | TLR7-wt (LEC) [2] | other results
1 | CCCCNC(=O)c1cccc2nc(N)nc(NCCCC)c12 [Compound 15] | 3.27 | 0.49 | 
2 | CCCCNc1nc(N)nc2ccc(-c3cnn(C)c3)cc12 [Compound 20] | 2.55 | >25 | 
3 | CCCCNc1nc(N)nc2cc(C(=O)NCc3ccccc3)ccc12 [Compound 95] | 0.42 | 0.54 | 
4 | CCCC[C@@H](CO)Nc1nc(N)nc2cc(OC)c(OC)cc12 [Compound 4] |  |  | TLR8-wt_LEC [1]: 2.6; TLR7-dIRR2_LEC [3]: 2.4; EC50 [4]: 3 µM; TLR8-dIRR2_LEC [5]: 1.7
5 | CC[C@H](C)[C@@H](CO)Nc1nc(N)nc2cc(OC)c(OC)cc12 [Compound 7] |  |  | TLR8-wt_LEC [1]: 13.8; TLR7-dIRR2_LEC [3]: 3.8; EC50 [4]: 12.4 µM; TLR8-dIRR2_LEC [5]: 9.0
6 | CCCCNc1nc(N)nc2ccc(C#CC(C)O)cc12 (centres unmarked) [Compound 14] | 4.77 | 0.65 | 
7 | CCCCCNc1nc(N)nc2cc(OC)c(OC)cc12 [Compound 2] |  |  | TLR8-wt_LEC [1]: 1.5; TLR7-dIRR2_LEC [3]: 1.2; EC50 [4]: 4.4 µM; TLR8-dIRR2_LEC [5]: 0.6
8 | CCCCNc1nc(N)nc2cccc(CCc3ccccn3)c12 [Compound 12] | 0.79 | 1.66 | 
9 | CCCCNc1nc(N)nc2cc(C(=O)N3CCOCC3)ccc12 [Compound 91] | 0.53 | 0.13 | 
10 | CCCCNc1nc(N)nc2cc(C(=O)NCCN(C)C)ccc12 [Compound 92] | 5.87 | 1.53 | 
11 | CCCCNc1nc(N)nc2ccc(C#N)cc12 [Compound 19] | 7.05 | >25 | 
12 | CCCCNc1nc(N)nc2cc(C(=O)Nc3cccnc3)ccc12 [Compound 90] |  | 0.42 | 
13 | CCCCNc1nc(N)nc2cc(C(=O)NCc3ccccn3)ccc12 [Compound 93] | 1.69 | 0.77 | 
14 | CCCCNc1nc(N)nc2ccc(C(C)O)cc12 (centres unmarked) [Compound 23] | 5.05 | 10.23 | 
15 | CCCCNc1nc(N)nc2ccc(C(C)=O)cc12 [Compound 22] | 1.95 | 6.07 | 
16 | CCCCNc1nc(N)nc2cc(C(=O)N(C)C)ccc12 [Compound 94] | 0.48 | 0.07 | 
17 | CCCCNc1nc(N)nc2ccccc12 [Compound 8] |  |  | TLR8-wt_LEC [1]: 0.1; TLR7-wt_LEC ([2]; lowest effective concentration): 0.1; TLR7-dIRR2_LEC [3]: 0.02; TLR8-dIRR2_LEC [5]: 0.02
18 | CCCCNc1nc(N)nc2ccc(CCC(C)O)cc12 (centres unmarked) [Compound 16] | 0.73 | 0.57 | 
19 | CCCCNc1nc(N)nc2cccc(CCc3cccc(OC)c3)c12 [Compound 97] | 0.83 | 0.6 | 
20 | CCCCNc1nc(N)nc2cccc(CCc3ccc(OC)cc3)c12 [Compound 96] | 16 | 2.7 | 
21 | CCC[C@@H](CCO)Nc1nc(N)nc2cc(OC)c(OC)cc12 [Compound 5] |  |  | TLR8-wt_LEC [1]: 6.7; TLR7-dIRR2_LEC [3]: 2.6; EC50 [4]: 3.3 µM; TLR8-dIRR2_LEC [5]: 2.6
22 | CCCCNc1nc(N)nc2cccc(OCC(=O)OC)c12 [Compound 98] | 0.31 | 0.21 | 

Reference: patent US8916575B2, “Quinazoline derivatives for the treatment of viral infections and further diseases” (Janssen R&D Ireland, priority 2011, dated 2014)
